Laboratory results taken from the kinase profiling compilation of Christmann-Franck et al. (2016).

What was measured:
Assay in all cases: radiometric filter-binding kinase assay, Kinase HotSpot
Conditions in all cases: compound 0.5 µM; ATP 10 µM
[1] = molecular target: AKT2 (human) (UniProt P31751)
[2] = molecular target: BMX (human) (UniProt P51813)
[3] = molecular target: BRSK1 (human) (UniProt Q8TDC3)
[4] = molecular target: CAMK2D (human) (UniProt Q13557)
[5] = molecular target: CDK1 CCNB1 (human) (UniProt P06493+P14635)
[6] = molecular target: CDK5 CDK5R1 p25 (human) (UniProt Q00535+Q15078)
Chain of CDK5 CDK5R1 p25 (human) (Q00535 whole entry, looked up): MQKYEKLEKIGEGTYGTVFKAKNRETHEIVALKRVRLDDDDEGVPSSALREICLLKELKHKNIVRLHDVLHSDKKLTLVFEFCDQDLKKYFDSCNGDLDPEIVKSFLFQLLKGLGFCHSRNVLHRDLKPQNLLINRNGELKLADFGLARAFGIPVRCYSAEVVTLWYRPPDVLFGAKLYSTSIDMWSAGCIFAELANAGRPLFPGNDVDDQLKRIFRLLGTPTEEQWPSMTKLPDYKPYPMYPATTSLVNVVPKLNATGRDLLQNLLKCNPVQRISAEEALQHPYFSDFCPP
Chain of CDK5 CDK5R1 p25 (human) (Q15078 whole entry, looked up): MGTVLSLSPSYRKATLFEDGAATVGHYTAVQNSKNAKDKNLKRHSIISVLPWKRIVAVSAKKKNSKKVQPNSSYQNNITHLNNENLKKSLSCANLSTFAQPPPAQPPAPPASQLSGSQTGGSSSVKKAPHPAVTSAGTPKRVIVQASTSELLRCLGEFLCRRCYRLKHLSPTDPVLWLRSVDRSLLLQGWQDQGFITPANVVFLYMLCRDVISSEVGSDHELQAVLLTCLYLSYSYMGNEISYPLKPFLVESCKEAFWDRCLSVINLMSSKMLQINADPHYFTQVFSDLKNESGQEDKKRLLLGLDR

[7] = molecular target: CLK4 (human) (UniProt Q9HAZ1)
[8] = molecular target: CSNK1D (human) (UniProt P48730)
Chain of CSNK1D (human) (P48730 whole entry, looked up): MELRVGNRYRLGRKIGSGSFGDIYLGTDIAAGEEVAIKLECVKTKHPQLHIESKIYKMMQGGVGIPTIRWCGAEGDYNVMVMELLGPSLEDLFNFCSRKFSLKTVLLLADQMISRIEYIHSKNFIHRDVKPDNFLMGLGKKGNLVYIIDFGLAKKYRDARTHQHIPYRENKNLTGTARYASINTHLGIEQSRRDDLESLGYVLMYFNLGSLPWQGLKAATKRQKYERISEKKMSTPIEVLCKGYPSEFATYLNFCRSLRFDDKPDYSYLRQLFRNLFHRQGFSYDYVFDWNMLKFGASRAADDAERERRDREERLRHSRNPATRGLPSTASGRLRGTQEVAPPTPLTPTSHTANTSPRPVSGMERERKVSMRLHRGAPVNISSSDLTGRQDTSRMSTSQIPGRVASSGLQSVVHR

[9] = molecular target: DAPK2 (human) (UniProt Q9UIK4)
[10] = molecular target: DSTYK (human) (UniProt Q6XUX3)
[11] = molecular target: EPHA4 (human) (UniProt P54764)
[12] = molecular target: EPHB1 (human) (UniProt P54762)
[13] = molecular target: EPHB4 (human) (UniProt P54760)
[14] = molecular target: GRK7 (human) (UniProt Q8WTQ7)
[15] = molecular target: GSK3A (human) (UniProt P49840)
[16] = molecular target: INSR (human) (UniProt P06213)
Chain of INSR (human) (P06213 whole entry, looked up): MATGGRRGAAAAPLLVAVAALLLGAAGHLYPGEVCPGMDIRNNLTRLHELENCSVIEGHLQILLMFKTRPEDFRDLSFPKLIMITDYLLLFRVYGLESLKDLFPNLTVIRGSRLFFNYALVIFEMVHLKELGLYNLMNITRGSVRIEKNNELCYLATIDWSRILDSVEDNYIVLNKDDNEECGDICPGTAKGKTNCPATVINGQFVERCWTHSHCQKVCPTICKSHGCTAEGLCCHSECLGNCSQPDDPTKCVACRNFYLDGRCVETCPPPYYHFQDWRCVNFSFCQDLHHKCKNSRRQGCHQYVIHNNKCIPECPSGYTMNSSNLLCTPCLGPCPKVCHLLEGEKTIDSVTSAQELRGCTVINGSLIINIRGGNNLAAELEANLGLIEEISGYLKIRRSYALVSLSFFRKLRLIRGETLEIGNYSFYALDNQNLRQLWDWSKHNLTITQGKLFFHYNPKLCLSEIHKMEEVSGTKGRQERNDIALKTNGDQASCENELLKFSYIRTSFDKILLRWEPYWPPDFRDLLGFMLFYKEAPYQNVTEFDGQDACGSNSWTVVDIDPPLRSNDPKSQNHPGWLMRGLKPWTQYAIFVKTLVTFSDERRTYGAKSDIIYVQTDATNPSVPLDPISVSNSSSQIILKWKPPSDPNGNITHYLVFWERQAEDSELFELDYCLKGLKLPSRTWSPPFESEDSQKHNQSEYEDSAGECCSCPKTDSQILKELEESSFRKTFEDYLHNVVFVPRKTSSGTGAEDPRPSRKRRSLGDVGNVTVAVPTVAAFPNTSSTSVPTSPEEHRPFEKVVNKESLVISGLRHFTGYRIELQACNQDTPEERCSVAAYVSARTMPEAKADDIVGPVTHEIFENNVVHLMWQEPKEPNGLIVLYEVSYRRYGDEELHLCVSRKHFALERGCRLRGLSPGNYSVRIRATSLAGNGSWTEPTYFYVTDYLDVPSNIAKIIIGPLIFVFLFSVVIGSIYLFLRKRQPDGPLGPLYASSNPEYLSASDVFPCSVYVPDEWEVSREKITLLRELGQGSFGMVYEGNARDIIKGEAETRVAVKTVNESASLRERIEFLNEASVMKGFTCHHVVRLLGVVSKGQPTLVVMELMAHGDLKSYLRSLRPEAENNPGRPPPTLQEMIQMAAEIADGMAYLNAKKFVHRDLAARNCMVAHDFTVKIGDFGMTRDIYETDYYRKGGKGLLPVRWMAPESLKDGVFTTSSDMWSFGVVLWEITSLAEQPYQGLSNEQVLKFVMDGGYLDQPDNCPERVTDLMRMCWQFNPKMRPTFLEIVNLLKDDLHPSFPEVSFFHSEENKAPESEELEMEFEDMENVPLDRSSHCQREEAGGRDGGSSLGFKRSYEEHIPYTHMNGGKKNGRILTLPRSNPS

[17] = molecular target: LIMK1 (human) (UniProt P53667)
[18] = molecular target: LRRK2 (human) (UniProt Q5S007)
[19] = molecular target: MAP2K2 (human) (UniProt P36507)
[20] = molecular target: MAP3K8 (human) (UniProt P41279)
[21] = molecular target: MST4 (human) (UniProt Q9P289)
[22] = molecular target: NEK11 (human) (UniProt Q8NG66)
[23] = molecular target: NEK4 (human) (UniProt P51957)
Chain of NEK4 (human) (P51957 whole entry, looked up): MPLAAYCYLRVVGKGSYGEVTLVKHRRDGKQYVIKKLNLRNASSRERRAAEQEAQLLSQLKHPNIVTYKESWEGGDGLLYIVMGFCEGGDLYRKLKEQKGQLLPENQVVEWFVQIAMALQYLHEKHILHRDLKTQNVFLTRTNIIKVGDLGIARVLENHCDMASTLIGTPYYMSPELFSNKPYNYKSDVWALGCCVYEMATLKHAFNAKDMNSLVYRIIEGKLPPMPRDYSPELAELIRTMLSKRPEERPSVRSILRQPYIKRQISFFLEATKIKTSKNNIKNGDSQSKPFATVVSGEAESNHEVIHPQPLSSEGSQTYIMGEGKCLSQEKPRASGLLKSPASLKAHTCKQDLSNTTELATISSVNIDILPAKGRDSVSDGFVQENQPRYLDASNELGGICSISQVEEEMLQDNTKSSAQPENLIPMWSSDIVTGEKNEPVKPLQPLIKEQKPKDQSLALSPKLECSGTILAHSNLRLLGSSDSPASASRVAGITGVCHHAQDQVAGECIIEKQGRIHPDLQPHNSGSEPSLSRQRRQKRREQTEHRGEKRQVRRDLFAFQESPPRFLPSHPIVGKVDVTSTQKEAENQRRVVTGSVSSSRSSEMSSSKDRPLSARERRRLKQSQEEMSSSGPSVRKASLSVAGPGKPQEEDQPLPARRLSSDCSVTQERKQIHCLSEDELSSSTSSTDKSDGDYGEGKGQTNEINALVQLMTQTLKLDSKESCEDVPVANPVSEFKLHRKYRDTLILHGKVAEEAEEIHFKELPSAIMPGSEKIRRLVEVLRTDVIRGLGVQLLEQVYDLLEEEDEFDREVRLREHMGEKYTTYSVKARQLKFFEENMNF

[24] = molecular target: NTRK1 (human) (UniProt P04629)
[25] = molecular target: NUAK2 (human) (UniProt Q9H093)
Chain of NUAK2 (human) (Q9H093 whole entry, looked up): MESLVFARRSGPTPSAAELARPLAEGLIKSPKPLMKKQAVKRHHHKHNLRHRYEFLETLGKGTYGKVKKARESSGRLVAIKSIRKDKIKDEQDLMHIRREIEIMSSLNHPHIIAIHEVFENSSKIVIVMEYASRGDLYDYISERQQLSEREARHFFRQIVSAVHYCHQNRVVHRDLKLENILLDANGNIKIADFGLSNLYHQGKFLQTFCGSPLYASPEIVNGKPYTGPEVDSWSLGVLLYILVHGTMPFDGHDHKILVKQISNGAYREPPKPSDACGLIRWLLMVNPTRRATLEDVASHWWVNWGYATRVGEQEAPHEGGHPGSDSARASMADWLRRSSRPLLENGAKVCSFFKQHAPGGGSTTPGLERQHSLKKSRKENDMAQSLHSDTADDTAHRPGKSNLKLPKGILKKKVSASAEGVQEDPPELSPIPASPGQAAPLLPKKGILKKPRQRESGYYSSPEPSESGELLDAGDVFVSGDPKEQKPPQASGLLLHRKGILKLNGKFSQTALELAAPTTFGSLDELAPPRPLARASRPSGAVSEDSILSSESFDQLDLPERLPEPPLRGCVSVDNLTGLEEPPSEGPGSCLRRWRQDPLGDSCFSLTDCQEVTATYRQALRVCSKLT

[26] = molecular target: PAK1 (human) (UniProt Q13153)
[27] = molecular target: PDGFRB (human) (UniProt P09619)
[28] = molecular target: PRKCG (human) (UniProt P05129)
[29] = molecular target: PRKCI (human) (UniProt P41743)
[30] = molecular target: PRKCZ (human) (UniProt Q05513)
[31] = molecular target: PTK2 (human) (UniProt Q05397)
[32] = molecular target: PTK2B (human) (UniProt Q14289)
[33] = molecular target: PTK6 (human) (UniProt Q13882)
Chain of PTK6 (human) (Q13882 whole entry, looked up): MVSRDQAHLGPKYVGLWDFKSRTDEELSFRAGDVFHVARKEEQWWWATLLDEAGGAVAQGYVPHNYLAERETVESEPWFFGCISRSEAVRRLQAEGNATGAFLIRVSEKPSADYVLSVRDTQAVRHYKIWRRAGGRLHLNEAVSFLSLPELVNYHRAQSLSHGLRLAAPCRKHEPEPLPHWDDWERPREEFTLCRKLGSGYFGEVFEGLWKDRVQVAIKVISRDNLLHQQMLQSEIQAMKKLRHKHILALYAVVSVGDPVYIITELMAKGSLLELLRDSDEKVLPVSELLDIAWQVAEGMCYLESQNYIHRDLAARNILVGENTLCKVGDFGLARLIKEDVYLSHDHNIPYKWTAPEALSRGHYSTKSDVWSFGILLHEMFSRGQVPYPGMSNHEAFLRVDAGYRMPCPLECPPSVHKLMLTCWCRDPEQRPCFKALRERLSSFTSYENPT

[34] = molecular target: RPS6KA2 KD1 KD2 (human) (UniProt Q15349)
Chain of RPS6KA2 KD1 KD2 (human) (Q15349 whole entry, looked up): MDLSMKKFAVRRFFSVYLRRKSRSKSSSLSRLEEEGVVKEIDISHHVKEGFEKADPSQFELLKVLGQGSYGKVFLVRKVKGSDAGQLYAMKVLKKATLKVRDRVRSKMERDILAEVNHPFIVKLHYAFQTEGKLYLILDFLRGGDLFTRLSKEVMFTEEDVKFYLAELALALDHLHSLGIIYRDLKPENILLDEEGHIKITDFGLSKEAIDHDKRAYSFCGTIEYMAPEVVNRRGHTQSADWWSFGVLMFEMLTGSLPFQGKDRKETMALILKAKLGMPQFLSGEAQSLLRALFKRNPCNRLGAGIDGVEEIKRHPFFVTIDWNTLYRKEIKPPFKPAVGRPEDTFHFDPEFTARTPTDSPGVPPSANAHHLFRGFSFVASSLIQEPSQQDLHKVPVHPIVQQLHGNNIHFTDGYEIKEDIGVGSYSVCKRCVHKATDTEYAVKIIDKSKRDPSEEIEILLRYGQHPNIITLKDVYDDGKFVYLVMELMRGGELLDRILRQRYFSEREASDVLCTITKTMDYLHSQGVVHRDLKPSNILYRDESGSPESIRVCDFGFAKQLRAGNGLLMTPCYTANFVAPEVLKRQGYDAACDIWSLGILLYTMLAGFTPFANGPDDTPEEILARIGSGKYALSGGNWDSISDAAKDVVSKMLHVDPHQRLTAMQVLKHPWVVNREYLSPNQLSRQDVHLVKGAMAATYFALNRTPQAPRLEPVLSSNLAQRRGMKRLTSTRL

[35] = molecular target: SGK2 (human) (UniProt Q9HBY8)
[36] = molecular target: SRC (human) (UniProt P12931)
[37] = molecular target: SRPK2 (human) (UniProt P78362)
[38] = molecular target: STK10 (human) (UniProt O94804)
[39] = molecular target: TAOK3 (human) (UniProt Q9H2K8)
[40] = molecular target: TEC (human) (UniProt P42680)
[41] = molecular target: ULK2 (human) (UniProt Q8IYT8)
[42] = molecular target: ZAP70 (human) (UniProt P43403)

O=C1NC(=O)C(c2c[nH]c3ccccc23)=C1c1c[nH]c2ccccc12
residual activity [1]: 102% | residual activity [2]: 100% | residual activity [3]: 84.4% | residual activity [4]: 65% | residual activity [5]: 96.5% | residual activity [6]: 87.4% | residual activity [7]: 76.1% | residual activity [8]: 95.7% | residual activity [9]: 88.6% | residual activity [10]: 99.6% | residual activity [11]: 87.6% | residual activity [12]: 83.1% | residual activity [13]: 88.5% | residual activity [14]: 91.8% | residual activity [15]: 27.7% | residual activity [16]: 99.6% | residual activity [17]: 103% | residual activity [18]: 77.5% | residual activity [19]: 82.7% | residual activity [20]: 90.8% | residual activity [21]: 59.2% | residual activity [22]: 108% | residual activity [23]: 96.4% | residual activity [24]: 92% | residual activity [25]: 86% | residual activity [26]: 83.5% | residual activity [27]: 95.6% | residual activity [28]: 91.4% | residual activity [29]: 96.9% | residual activity [30]: 96.2% | residual activity [31]: 101% | residual activity [32]: 95.6% | residual activity [33]: 84.6% | residual activity [34]: 11.5% | residual activity [35]: 90.5% | residual activity [36]: 93.7% | residual activity [37]: 84.3% | residual activity [38]: 49.6% | residual activity [39]: 85.2% | residual activity [40]: 145% | residual activity [41]: 92.9%

Nc1nnc2[nH]c3ccccc3nc1-2
residual activity [1]: 90.1% | residual activity [2]: 99.5% | residual activity [3]: 91.5% | residual activity [4]: 89.4% | residual activity [5]: 79.6% | residual activity [6]: 85.4% | residual activity [7]: 86.9% | residual activity [8]: 94.2% | residual activity [9]: 91% | residual activity [10]: 96% | residual activity [11]: 86.5% | residual activity [12]: 92.3% | residual activity [13]: 84.9% | residual activity [15]: 91.6% | residual activity [16]: 95.3% | residual activity [17]: 105% | residual activity [18]: 90.5% | residual activity [19]: 104% | residual activity [20]: 81.3% | residual activity [21]: 91.2% | residual activity [22]: 110% | residual activity [23]: 97.8% | residual activity [24]: 88.3% | residual activity [25]: 96.3% | residual activity [26]: 97.1% | residual activity [27]: 98.1% | residual activity [28]: 97.3% | residual activity [29]: 103% | residual activity [30]: 106% | residual activity [31]: 94.6% | residual activity [32]: 92% | residual activity [33]: 84.1% | residual activity [34]: 89.1% | residual activity [35]: 90.3% | residual activity [37]: 95.9% | residual activity [38]: 94.6% | residual activity [39]: 97.1% | residual activity [40]: 108% | residual activity [41]: 95.9% | residual activity [42]: 102%

CN([C@@H](Cc1ccc(OS(=O)(=O)c2cccc3cnccc23)cc1)C(=O)N1CCN(c2ccccc2)CC1)S(=O)(=O)c1cccc2cnccc12
residual activity [1]: 106% | residual activity [2]: 97.4% | residual activity [3]: 96.4% | residual activity [4]: 92.8% | residual activity [5]: 108% | residual activity [6]: 93.5% | residual activity [7]: 97.2% | residual activity [8]: 109% | residual activity [9]: 99.7% | residual activity [10]: 97.4% | residual activity [11]: 95.4% | residual activity [12]: 94.2% | residual activity [14]: 105% | residual activity [15]: 99.8% | residual activity [16]: 98.8% | residual activity [17]: 104% | residual activity [18]: 97.1% | residual activity [19]: 119% | residual activity [20]: 99.3% | residual activity [21]: 109% | residual activity [22]: 103% | residual activity [23]: 99.5% | residual activity [24]: 111% | residual activity [25]: 88.7% | residual activity [26]: 95.7% | residual activity [27]: 104% | residual activity [28]: 95.4% | residual activity [29]: 93.8% | residual activity [30]: 101% | residual activity [31]: 104% | residual activity [32]: 103% | residual activity [33]: 89.7% | residual activity [34]: 102% | residual activity [35]: 100% | residual activity [36]: 91.3% | residual activity [37]: 99.4% | residual activity [38]: 96.3% | residual activity [39]: 89.9% | residual activity [40]: 98.9% | residual activity [41]: 106% | residual activity [42]: 99.5%

COc1cc2ncnc(N3CCN(C(=O)Nc4ccc(Oc5ccccc5)cc4)CC3)c2cc1OC
residual activity [1]: 87.6% | residual activity [2]: 90.9% | residual activity [3]: 86.4% | residual activity [4]: 70.9% | residual activity [5]: 105% | residual activity [6]: 77.1% | residual activity [7]: 65.6% | residual activity [8]: 103% | residual activity [9]: 95% | residual activity [10]: 113% | residual activity [11]: 93.2% | residual activity [12]: 94.3% | residual activity [13]: 99.3% | residual activity [14]: 95.7% | residual activity [15]: 95.8% | residual activity [16]: 98.2% | residual activity [17]: 69.8% | residual activity [18]: 98.3% | residual activity [19]: 99.3% | residual activity [20]: 95.1% | residual activity [21]: 95.4% | residual activity [22]: 107% | residual activity [23]: 94.4% | residual activity [24]: 90.6% | residual activity [25]: 77.4% | residual activity [26]: 91.8% | residual activity [28]: 104% | residual activity [29]: 105% | residual activity [30]: 96% | residual activity [31]: 89.4% | residual activity [32]: 91.2% | residual activity [33]: 95.2% | residual activity [34]: 86.1% | residual activity [35]: 96.7% | residual activity [36]: 102% | residual activity [37]: 89.1% | residual activity [38]: 97.9% | residual activity [39]: 95.3% | residual activity [40]: 101% | residual activity [41]: 102% | residual activity [42]: 100%
